Experimental data: ChEMBL document CHEMBL2010660, “Synthesis, SAR and biological evaluation of 1,6-disubstituted-1H-pyrazolo[3,4-d]pyrimidines as dual inhibitors of Aurora kinases and CDK1” (Bioorg Med Chem Lett, 2012)
Calls of active or inactive are those of the source. The calls are words filed in the database; no cut-off is given here.

Experiments:
Aurora kinase A = molecular target: T1, Aurora kinase A (Homo sapiens, UniProt O14965); assay: Inhibition of aurora A kinase
T1 sequence (O14965 whole entry): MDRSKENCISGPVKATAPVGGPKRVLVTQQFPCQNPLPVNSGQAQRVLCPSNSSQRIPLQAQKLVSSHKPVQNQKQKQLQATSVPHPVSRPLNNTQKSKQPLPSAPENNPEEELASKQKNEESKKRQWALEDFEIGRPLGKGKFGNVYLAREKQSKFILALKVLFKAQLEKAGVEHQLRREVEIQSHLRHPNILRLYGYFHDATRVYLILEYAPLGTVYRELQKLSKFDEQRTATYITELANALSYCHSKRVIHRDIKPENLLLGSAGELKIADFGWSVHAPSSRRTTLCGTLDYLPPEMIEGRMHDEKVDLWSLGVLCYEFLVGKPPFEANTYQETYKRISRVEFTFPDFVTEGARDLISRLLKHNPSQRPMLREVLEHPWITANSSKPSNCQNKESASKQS

Aurora kinase B [1] = molecular target: T2, Aurora kinase B (Homo sapiens, UniProt Q96GD4); assay: Inhibition of aurora B kinase
[2] = molecular target: Cyclin-dependent kinase 1 (Homo sapiens, UniProt P06493); assay: Inhibition of CDK1
HCT-116 [3] = assay: Cytotoxicity against human HCT116 cells after 5 days by MTS assay; format: functional, cell-based; settings: HCT-116, 120 h
HCT-116 [4] = assay: Cell cycle arrest in human HCT116 cells assessed as minimum concentration required for G2/M versus G1 peak ratio over 2; format: functional
[5] = Metabolic stability in mouse liver microsome assessed as ratio of clearance to hepatic blood flow; format: ADME; settings: liver microsomes, read-out: QH
[6] = Toxicity in human BMNC assessed as granulocyte/monocyte colony forming units ratio after 14 days by microscopic analysis; settings: 336 h
[7] = molecular target: T3, Aurora kinase A (Homo sapiens) (UniProt O14965); assay: Inhibition of aurora A kinase phosphorylation in human K562 cells at 0.003 to 1 uM by Western blot analysis; format: cell-based
T3 sequence (whole entry): T1 sequence (O14965 whole entry)

Aurora kinase B [8] = molecular target: T2, Aurora kinase B; assay: Inhibition of aurora B kinase phosphorylation in human K562 cells at 0.003 to 1 uM by Western blot analysis; format: cell-based
[9] = Half life in mouse at 25 mg/kg, ip; format: ADME, organism-based; set-up: dose 25 mg/kg, route intraperitoneal; settings: in vivo
[10] = AUC in mouse at 25 mg/kg, ip; format: ADME, organism-based; set-up: dose 25 mg/kg, route intraperitoneal; settings: plasma
[11] = Clearance in mouse at 25 mg/kg, ip; format: ADME, organism-based; set-up: dose 25 mg/kg, route intraperitoneal; settings: in vivo
Mus musculus [12] = assay: Apparent volume of distribution in mouse at 25 mg/kg, ip; format: ADME, organism-based; set-up: dose 25 mg/kg, route intraperitoneal; settings: in vivo
Rattus norvegicus [13] = assay: Half life in rat at 4 mg/kg, iv; format: ADME, organism-based; set-up: dose 4 mg/kg, route intravenous; settings: in vivo
[14] = AUC in rat at 4 mg/kg, iv; format: ADME, organism-based; set-up: dose 4 mg/kg, route intravenous; settings: plasma
Rattus norvegicus [15] = assay: Apparent volume of distribution in rat at 4 mg/kg, iv; format: ADME, organism-based; set-up: dose 4 mg/kg, route intravenous; settings: in vivo
Mus musculus [16] = assay: Inhibition of CDK1 in mouse serum assessed as decrease in histone H1 phosphorylation at 25 mg/kg, ip measured after 2 hrs; format: functional; settings: route intraperitoneal
Mus musculus [17] = assay: Inhibition of CDK1 in mouse serum assessed as decrease in histone H3 phosphorylation at 25 mg/kg, ip measured after 2 hrs; format: functional; settings: route intraperitoneal
Mus musculus [18] = assay: Inhibition of aurora A kinase in mouse assessed as increase in histone H3 phosphorylation at 25 mg/kg, ip measured after 6 hrs; format: functional, organism-based; set-up: dose 25 mg/kg
Mus musculus [19] = assay: Inhibition of aurora A in mouse assessed as increase in histone H3 phosphorylation at 25 mg/kg, ip measured after 9 hrs; format: functional, organism-based; set-up: dose 25 mg/kg
HCT-116 [20] = assay: Antitumor activity against human HCT116 cells xenografted in nu/nu mouse assessed as tumor growth inhibition at 12.5 to 40 mg/kg, ip qd for 21 days; format: functional; settings: dose mg/kg 12.5-40; route intraperitoneal
Mus musculus [21] = assay: Toxicity in nu/nu mouse xenografted with human HCT116 cells assessed as weight loss at 12.5 to 40 mg/kg, ip qd for 21 days; format: organism-based, HCT-116; set-up: dose 12.5-40 mg/kg, route intraperitoneal; settings: in vivo, 504 h
Mus musculus [22] = assay: Toxicity in nu/nu mouse xenografted with human HCT116 cells assessed as reluctance to move at 12.5 to 40 mg/kg, ip qd for 21 days; format: organism-based, HCT-116; set-up: dose 12.5-40 mg/kg, route intraperitoneal; settings: in vivo, 504 h
Mus musculus [23] = assay: Toxicity in nu/nu mouse xenografted with human HCT116 cells assessed as hunched posture at 12.5 to 40 mg/kg, ip qd for 21 days; format: organism-based, HCT-116; set-up: dose 12.5-40 mg/kg, route intraperitoneal; settings: in vivo, 504 h
Mus musculus [24] = assay: Toxicity in nu/nu mouse xenografted with human HCT116 cells assessed as mortality at 12.5 to 40 mg/kg, ip qd for 21 days; format: organism-based, HCT-116; set-up: dose 12.5-40 mg/kg, route intraperitoneal; settings: in vivo, 504 h

Sequence of Cyclin-dependent kinase 1 (P06493 whole entry): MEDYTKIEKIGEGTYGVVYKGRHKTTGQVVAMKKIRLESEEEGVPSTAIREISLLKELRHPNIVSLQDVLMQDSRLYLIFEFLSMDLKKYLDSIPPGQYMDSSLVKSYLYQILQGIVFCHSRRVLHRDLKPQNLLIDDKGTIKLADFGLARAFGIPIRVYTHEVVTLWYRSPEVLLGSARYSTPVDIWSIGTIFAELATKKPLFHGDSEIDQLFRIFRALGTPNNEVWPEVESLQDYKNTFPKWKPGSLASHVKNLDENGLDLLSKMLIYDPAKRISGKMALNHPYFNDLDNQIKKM
T2 sequence (Q96GD4 whole entry): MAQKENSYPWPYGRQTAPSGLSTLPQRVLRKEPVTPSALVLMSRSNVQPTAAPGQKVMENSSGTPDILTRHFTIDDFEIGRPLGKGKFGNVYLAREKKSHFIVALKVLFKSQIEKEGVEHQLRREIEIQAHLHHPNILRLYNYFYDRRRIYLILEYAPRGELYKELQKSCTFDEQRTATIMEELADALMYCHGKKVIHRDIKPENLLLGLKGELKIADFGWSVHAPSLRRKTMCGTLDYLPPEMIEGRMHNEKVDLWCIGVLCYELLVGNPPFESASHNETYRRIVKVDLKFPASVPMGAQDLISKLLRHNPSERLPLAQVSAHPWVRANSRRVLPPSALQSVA

SMILES | IC50 (Aurora kinase A) [nM] | IC50 (Aurora kinase B [1]) [nM] | IC50 [2] [nM] | hepatic extraction ratio [5] | IC50 (HCT-116 [3]) [nM] | Activity (HCT-116 [4]) [µM] | also measured
Cn1cc(Nc2ncc3cnn([C@@H]4C[C@H]5C[C@H]5C4)c3n2)cc1C(=O)N1CCCC1 | 17 | 40 | 41 | – | 95 | 0.1 | –
CC(C)n1ncc2cnc(Nc3cc(C(N)=O)n(C)c3)nc21 | 230 | 38 | 160 | 0.27 | 1000 | 1 | –
COC[C@@H]1CCCN1C(=O)c1cc(Nc2ncc3cnn([C@@H]4C[C@H]5C[C@H]5C4)c3n2)cn1C | 4 | 5 | 22 | – | 10 | 0.03 | Ratio [6]: 32; inhibition [7]: Active; inhibition (Aurora kinase B [8]): Active; half-life [9]: 1 h; AUC [10]: 6420 ng·h/mL; CL/F [11]: 65 mL/min/kg; Vz (Mus musculus [12]): 3 L/kg; t1/2 (Rattus norvegicus [13]): 5 h; AUC [14]: 1230 ng·h/mL; Vz (Rattus norvegicus [15]): 5 L/kg; inhibition in vivo at 25 mg/kg (Mus musculus [16]): 60%; inhibition in vivo at 25 mg/kg (Mus musculus [17]): 90%; inhibition (Mus musculus [18]): Active; inhibition (Mus musculus [19]): Active; TGI (HCT-116 [20]): 30%; Activity (Mus musculus [21]): 2%; Activity (Mus musculus [22]): Toxic; Activity (Mus musculus [23]): Toxic; Activity (Mus musculus [24]): Toxic
Cn1cc(Nc2ncc3cnn([C@@H]4C[C@H]5C[C@H]5C4)c3n2)cc1C(=O)N1CCC[C@H]1CN1CCCC1 | 10 | 5 | 47 | – | 11 | 0.03 | –
Cn1cc(Nc2ncc3cnn([C@@H]4C[C@H]5C[C@H]5C4)c3n2)cc1C(=O)N1CCC[C@@H]1CO | 100 | 36 | 150 | – | 170 | 0.1 | –
C[C@@H]1CCCN1C(=O)c1cc(Nc2ncc3cnn([C@@H]4C[C@H]5C[C@H]5C4)c3n2)cn1C | 2 | 4 | 40 | – | 130 | 0.03 | –
COC[C@H]1CCCN1C(=O)c1cc(Nc2ncc3cnn([C@@H]4C[C@H]5C[C@H]5C4)c3n2)cn1C | 16 | 6 | 150 | – | 60 | 0.065 | –
Cn1cc(Nc2ncc3cnn(C4CCC5(CC4)CC5)c3n2)cc1C(N)=O | 40 | 5 | 19 | 0.89 | 120 | 0.3 | –
Cn1cc(Nc2ncc3cnn([C@@H]4CC[C@H]5CCC[C@H]54)c3n2)cc1C(N)=O | 13 | 22 | 13 | 0.85 | 66 | 0.1 | –
Cn1cc(Nc2ncc3cnn(C4C5CC6CC(C5)CC4C6)c3n2)cc1C(N)=O (stereo not given) | 25 | 18 | 38 | 0.89 | 270 | 0.3 | –
Cn1cc(Nc2ncc3cnn([C@@H]4C[C@H]5C[C@H]5C4)c3n2)cc1C(=O)N1CCC[C@H]1CN1CCOCC1 | 3 | 4 | 21 | – | 8 | 0.017 | –
O=C1N=C(NCc2cccs2)S/C1=C\c1ccc2ncccc2c1 | – | – | – | – | 3200 | – | –
O=C(O)c1ccc(Nc2ncc3c(n2)-c2ccc(Cl)cc2C(c2c(F)cccc2F)=NC3)cc1 [MLN-8054] | – | – | – | – | 690 | – | –

The remaining molecules from weak to strong by IC50 (Aurora kinase A), led by results:

IC50 (Aurora kinase A) [nM] | IC50 (Aurora kinase B [1]) [nM] | IC50 [2] [nM] | hepatic extraction ratio [5] | SMILES | IC50 (HCT-116 [3]) [nM] | Activity (HCT-116 [4]) [µM] | also measured
150 | 19 | 50 | 0.89 | Cn1cc(Nc2ncc3cnn(C4CCC5(CC5)C4)c3n2)cc1C(N)=O (stereo not given) | 290 | 0.65 | –
87 | 23 | 15 | 0.87 | Cn1cc(Nc2ncc3cnn(C4CCCCCC4)c3n2)cc1C(N)=O | 140 | 0.23 | –
80 | 50 | 1200 | – | CNC[C@@H]1CCCN1C(=O)c1cc(Nc2ncc3cnn([C@@H]4C[C@H]5C[C@H]5C4)c3n2)cn1C | 150 | 0.3 | –
30 | 5 | 24 | 0.92 | Cn1cc(Nc2ncc3cnn(C4CCC(C)(C)CC4)c3n2)cc1C(N)=O | 100 | 0.1 | –
21 | 12 | 16 | 0.76 | Cn1cc(Nc2ncc3cnn([C@H]4CC[C@H]5CCC[C@H]54)c3n2)cc1C(N)=O | 230 | 0.3 | –
19 | 4 | 1700 | – | CN(C)C(=O)[C@@H]1CCCN1C(=O)c1cc(Nc2ncc3cnn([C@@H]4C[C@H]5C[C@H]5C4)c3n2)cn1C | 160 | 0.1 | –
17 | 4 | 24 | 0.69 | Cn1cc(Nc2ncc3cnn([C@@H]4C[C@H]5C[C@H]5C4)c3n2)cc1C(N)=O | 79 | 0.1 | –
6 | 4 | 10 | – | Cn1cc(Nc2ncc3cnn([C@@H]4C[C@H]5C[C@H]5C4)c3n2)cc1C(=O)N1CCC[C@H]1C(N)=O | 47 | 0.03 | –
4 | 3 | 10 | – | Cn1cc(Nc2ncc3cnn([C@@H]4C[C@H]5C[C@H]5C4)c3n2)cc1C(=O)N1CCC[C@H]1CO | 18 | 0.01 | –
1.5 | 4 | 390 | – | Cn1cc(Nc2ncc3cnn([C@@H]4C[C@H]5C[C@H]5C4)c3n2)cc1C(=O)N1CCC[C@@H]1CN1CCOCC1 | 24 | 0.03 | –
